Each structure is given as a SMILES string. pIC50: −log10 of the molar value. A value given as a limit tells only on which side of the number the result lay.

The target of one test is T1, human HDAC6 enzyme (Homo sapiens, UniProt Q9UBN7).
T1 sequence (Q9UBN7 1-1215): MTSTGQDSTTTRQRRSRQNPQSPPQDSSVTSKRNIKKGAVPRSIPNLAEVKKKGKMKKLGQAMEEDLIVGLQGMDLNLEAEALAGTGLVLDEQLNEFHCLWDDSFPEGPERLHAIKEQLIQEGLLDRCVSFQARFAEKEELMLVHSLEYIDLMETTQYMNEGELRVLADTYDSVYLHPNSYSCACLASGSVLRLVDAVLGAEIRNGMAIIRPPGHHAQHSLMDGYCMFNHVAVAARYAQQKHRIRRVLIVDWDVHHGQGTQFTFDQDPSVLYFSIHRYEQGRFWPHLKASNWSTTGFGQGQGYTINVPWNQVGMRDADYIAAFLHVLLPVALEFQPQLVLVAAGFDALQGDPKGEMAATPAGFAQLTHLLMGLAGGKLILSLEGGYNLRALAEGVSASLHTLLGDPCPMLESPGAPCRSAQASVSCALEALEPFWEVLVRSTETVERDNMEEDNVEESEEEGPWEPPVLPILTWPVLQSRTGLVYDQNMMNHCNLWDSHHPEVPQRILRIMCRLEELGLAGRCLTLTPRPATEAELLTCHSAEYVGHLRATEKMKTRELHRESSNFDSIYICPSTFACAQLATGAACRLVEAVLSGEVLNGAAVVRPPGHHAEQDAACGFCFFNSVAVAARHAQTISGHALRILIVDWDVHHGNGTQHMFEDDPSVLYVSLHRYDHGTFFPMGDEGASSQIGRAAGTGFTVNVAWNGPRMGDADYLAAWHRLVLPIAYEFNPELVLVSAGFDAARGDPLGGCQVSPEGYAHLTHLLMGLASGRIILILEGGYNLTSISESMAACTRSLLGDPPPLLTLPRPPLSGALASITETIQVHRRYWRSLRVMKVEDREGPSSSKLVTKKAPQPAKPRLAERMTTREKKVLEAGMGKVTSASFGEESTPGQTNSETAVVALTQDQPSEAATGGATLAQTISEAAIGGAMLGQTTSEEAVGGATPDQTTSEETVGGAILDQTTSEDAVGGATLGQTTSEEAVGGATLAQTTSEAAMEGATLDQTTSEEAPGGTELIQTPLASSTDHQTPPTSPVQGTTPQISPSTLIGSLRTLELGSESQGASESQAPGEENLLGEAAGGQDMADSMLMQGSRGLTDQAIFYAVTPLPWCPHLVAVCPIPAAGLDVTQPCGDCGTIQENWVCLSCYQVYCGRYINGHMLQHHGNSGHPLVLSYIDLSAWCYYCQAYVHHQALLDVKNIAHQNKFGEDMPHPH
Briefly: Fluorescence-based enzyme activity assay. The test is classed as biochemical. The following applies: substrate with fluorescent peptide of p53 residues 379-382, 30°C for 1 hour. The method, then: Experimental Example 1: Fluorescence-based enzyme activity assay
In order to measure the inhibitory effect of the compounds on the activity of histone deacetylase 6 (HDAC6), an enzyme activity assay was performed to evaluate the enzyme activity by reacting the human HDAC6 enzyme with a substrate to which a fluorescent peptide of p53 residues 379-382 was attached. The test compounds were dissolved in 100% DMSO at a concentration of 10 mM to prepare a stock solution. A starting concentration of 30 µM was prepared from the stock solution, followed by 1/3 serial dilutions to prepare the test buffer solution. Trichostatin A (TSA)-which is the reference compound used to confirm the validity of the experiment-was serially diluted by 1/3 with the test buffer solution, starting from the highest concentration of 1 µM. To react the test compounds and TSA prepared in the test buffer with the HDAC6 enzyme, they were dispensed into a 96-well black plate and spin-down of the plate was performed. Then, the reaction was carried out at room temperature for 10 minutes. After 10 minutes, the substrate was dispensed, and the plate was sealed. The reaction was carried out at 30°C for 1 hour under light-blocking conditions. Fluorescence values were measured using a plate reader (wavelength: excitation/emission = 360/460 nm). The fluorescence measurements were normalized to the HDAC6 enzyme-treated group as 100% and the untreated group as 0%, respectively. […]

The target in a further test is T2, Human mGluR5 (Homo sapiens, UniProt P41594).
T2 construct: expressed in transfected cells; host or cells: HEK293
Briefly: Fluorescence-based Ca2+ mobilization assay. The settings on record: HEK293 cell line permanently overexpressing mGluR5, Ca2+ level change induced by L-glutamate at EC80 concentration, FLIPR Tetra. The method, then: Experimental Example 2: Fluorescence-based Ca^2+ mobilization assay
In order to measure the activity of the antagonist on the mGluR5, an experiment was carried out to check the change in the intracellular Ca^2+ level using the HEK293 cell line permanently overexpressing the mGluR5. The cells in the cell culture medium were aliquoted into a 384-well plate coated with poly-D-lysine and cultured in a 37°C incubator supplied with 5% CO2. The next day, the medium was removed and a dye loading buffer-in which a reagent capable of measuring Ca^2+ was dissolved-was added, and then incubated at 37°C for 60 minutes. The test compounds were dissolved in 100% DMSO at a final concentration of 10 mM to make a stock solution. The starting concentration of 10 µM was prepared from the stock solution, followed by serial dilutions to prepare working solutions (test compound working solutions). The test compound working solutions were added to the cells that were incubated in the dye loading buffer, which were maintained for 30 minutes at room temperature in a light-shielding state before measurement. The Ca^2+ level change induced by L-glutamate at EC80 concentration was measured for 2 minutes using FLIPR Tetra (MDS Analytical Technologies). The fluorescent Ca^2+ signal values in the presence of the test compounds were normalized to the fluorescent signal elicited by EC80 concentration of L-glutamate as 100% and that elicited by vehicle as 0% to estimate % inhibition of the test compounds. […]
For orientation: Calcium assays in cells follow changes in intracellular calcium, usually with a dye or a luminescent sensor.

T2 sequence (P41594 21-1212): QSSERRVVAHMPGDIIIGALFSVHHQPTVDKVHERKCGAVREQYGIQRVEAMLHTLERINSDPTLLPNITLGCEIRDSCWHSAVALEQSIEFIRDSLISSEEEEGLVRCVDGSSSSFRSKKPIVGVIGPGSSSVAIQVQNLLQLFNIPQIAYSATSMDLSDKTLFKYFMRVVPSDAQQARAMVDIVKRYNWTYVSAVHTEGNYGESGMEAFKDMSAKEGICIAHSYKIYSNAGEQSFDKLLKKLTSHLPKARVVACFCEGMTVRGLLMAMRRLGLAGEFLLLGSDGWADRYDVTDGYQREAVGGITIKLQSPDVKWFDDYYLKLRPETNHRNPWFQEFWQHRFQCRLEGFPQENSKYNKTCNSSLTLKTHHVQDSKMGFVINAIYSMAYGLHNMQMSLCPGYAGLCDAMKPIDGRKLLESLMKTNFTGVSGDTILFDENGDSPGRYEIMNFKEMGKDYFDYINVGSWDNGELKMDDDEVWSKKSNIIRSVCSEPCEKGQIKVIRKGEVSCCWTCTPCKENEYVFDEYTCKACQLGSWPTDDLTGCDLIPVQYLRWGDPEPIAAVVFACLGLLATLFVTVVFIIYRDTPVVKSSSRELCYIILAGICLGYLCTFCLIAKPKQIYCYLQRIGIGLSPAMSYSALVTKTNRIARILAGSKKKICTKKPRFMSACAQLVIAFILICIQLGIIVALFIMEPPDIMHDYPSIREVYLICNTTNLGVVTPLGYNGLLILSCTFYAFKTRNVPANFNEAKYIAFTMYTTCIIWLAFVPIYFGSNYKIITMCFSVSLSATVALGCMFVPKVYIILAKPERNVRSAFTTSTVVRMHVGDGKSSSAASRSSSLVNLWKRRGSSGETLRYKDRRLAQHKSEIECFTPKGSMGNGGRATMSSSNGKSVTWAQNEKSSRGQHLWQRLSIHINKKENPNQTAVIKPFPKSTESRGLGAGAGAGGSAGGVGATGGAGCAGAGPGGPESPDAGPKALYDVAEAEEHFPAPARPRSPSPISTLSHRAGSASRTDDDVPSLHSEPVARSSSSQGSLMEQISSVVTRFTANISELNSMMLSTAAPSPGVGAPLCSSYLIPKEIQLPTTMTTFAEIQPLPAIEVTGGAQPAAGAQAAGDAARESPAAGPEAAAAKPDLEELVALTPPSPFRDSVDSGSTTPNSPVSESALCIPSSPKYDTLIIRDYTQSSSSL

What is called pIC50 is the IC50 on a negative log10 scale, so that one unit is a factor of ten. Read a low pIC50 as a large IC50. On to `O=c1cc(-c2noc(C(F)(F)F)n2)ccn1CC#Cc1cccc(Cl)c1` [Example 7, 1-(3-(3-chlorophenyl)prop-2-yn-1-yl)-4-(5-(trifluoromethyl)-1,2,4-oxadiazol-3-yl)pyridine-2(1H)-one], for which the pIC50 is 6.00 to 6.30 against human HDAC6 enzyme and 5.70 to 6.00 at Human mGluR5.

Turning to `O=c1cc(-c2nnc(C(F)F)o2)ccn1CC#Cc1cccc(Cl)c1` [Example 15, 1-(3-(3-chlorophenyl)prop-2-yn-1-yl)-4-(5-(difluoromethyl)-1,3,4-oxadiazol-2-yl)pyridin-2(1H)-one], the pIC50 is above 7.00 against human HDAC6 enzyme and 6.00 to 6.30 at Human mGluR5.

`O=c1cc(-c2nnc(C(F)F)o2)ccn1CC#Cc1cccc(Cl)n1` [Example 22, 1-(3-(6-chloropyridin-2-yl)prop-2-yn-1-yl)-4-(5-(difluoromethyl)-1,3,4-oxadiazol-2-yl)pyridin-2(1H)-one] showed a pIC50 against human HDAC6 enzyme above 7.00.

On Human mGluR5, `O=c1cc(-c2nnc(C(F)F)o2)ccn1CC#Cc1cccc(C(F)F)c1` [Example 26, 4-(5-(difluoromethyl)-1,3,4-oxadiazol-2-yl)-1-(3-(3-(difluoromethyl)phenyl)prop-2-yn-1-yl)pyridin-2(1H)-one] had a pIC50 of 6.00 to 6.30.

At human HDAC6 enzyme, `Cc1cncc(C#CCn2ccc(-c3nnc(C(F)F)o3)cc2=O)c1` [Example 29, 4-(5-(difluoromethyl)-1,3,4-oxadiazol-2-yl)-1-(3-(5-methylpyridin-3-yl)prop-2-yn-1-yl)pyridin-2(1H)-one] had a pIC50 above 7.00.

In turn, `CS(=O)(=O)c1cccc(C#CCn2ccc(-c3nnc(C(F)F)o3)cc2=O)c1` [Example 32, 4-(5-(difluoromethyl)-1,3,4-oxadiazol-2-yl)-1-(3-(3-(methylsulfonyl)phenyl)prop-2-yn-1-yl)pyridin-2(1H)-one] gave a pIC50 against human HDAC6 enzyme above 7.00.

As to `O=c1cc(-c2nnc(C(F)F)o2)ccn1CC#Cc1cccc(Cl)c1F` [Example 33, 1-(3-(3-chloro-2-fluorophenyl)prop-2-yn-1-yl)-4-(5-(difluoromethyl)-1,3,4-oxadiazol-2-yl)pyridin-2(1H)-one], on human HDAC6 enzyme, the pIC50 was above 7.00.

For the compound `O=c1cc(-c2nnc(C(F)F)o2)ccn1CC#Cc1ccc(F)c(Cl)c1` [Example 34, 1-(3-(3-chloro-4-fluorophenyl)prop-2-yn-1-yl)-4-(5-(difluoromethyl)-1,3,4-oxadiazol-2-yl)pyridin-2(1H)-one], the negative-log IC50 (pIC50) against human HDAC6 enzyme was above 7.00.

At human HDAC6 enzyme, `O=c1cc(-c2nnc(C(F)F)o2)ccn1CC#Cc1cc(F)cc(Cl)c1` [Example 35, 1-(3-(3-chloro-5-fluorophenyl)prop-2-yn-1-yl)-4-(5-(difluoromethyl)-1,3,4-oxadiazol-2-yl)pyridin-2(1H)-one] gave a pIC50 above 7.00.

For the compound `O=c1cc(-c2nnc(C(F)F)o2)ccn1CC#Cc1ccc2scnc2c1` [Example 40, 1-(3-(benzo[d]thiazol-5-yl)prop-2-yn-1-yl)-4-(5-(difluoromethyl)-1,3,4-oxadiazol-2-yl)pyridin-2(1H)-one], the negative-log IC50 (pIC50) against human HDAC6 enzyme is 6.30 to 7.00.

For the compound `Cc1nc2ccc(C#CCOc3cc(-c4nnc(C(F)F)o4)ccn3)cc2s1` [Example 41], the negative-log IC50 (pIC50) at human HDAC6 enzyme is 6.00 to 6.30.

With `Cc1ncc(C#CCn2ccc(-c3nnc(C(F)F)o3)cc2=O)[nH]1` [Example 42, 4-(5-(difluoromethyl)-1,3,4-oxadiazol-2-yl)-1-(3-(2-methyl-1H-imidazol-5-yl)prop-2-yn-1-yl)pyridin-2(1H)-one], the negative logarithm of the IC50 (pIC50) against human HDAC6 enzyme is above 7.00.

At human HDAC6 enzyme, `O=c1cc(-c2nnc(C(F)F)o2)ccn1CC#Cc1ccsc1` [Example 43, 4-(5-(difluoromethyl)-1,3,4-oxadiazol-2-yl)-1-(3-(thiophen-3-yl)prop-2-yn-1-yl)pyridin-2(1H)-one] gave a pIC50 above 7.00.

On Human mGluR5, `CCC(C#Cc1cccc(Cl)c1)Oc1cc(-c2nnc(C(F)F)o2)ccn1` (centres unmarked) [Example 44] gave a pIC50 of 5.70 to 6.00.

The compound `O=c1cc(-c2nnc(C(F)F)o2)c(Br)cn1CC#Cc1cccc(Cl)c1` [Example 46, 5-bromo-1-(3-(3-chlorophenyl)prop-2-yn-1-yl)-4-(5-(difluoromethyl)-1,3,4-oxadiazol-2-yl)pyridin-2(1H)-one] gave a pIC50 on Human mGluR5 of 6.00 to 6.30.

Source of the values: patent publication EP4685143A1 (Vivozon,Inc., priority 2023, dated 2024).
